Source: patent US9029368B2, “3,7-disubstituted octahydro-2H-pyrido[4,3-E][1,3]oxazin-2-one antibiotics” (Actelion Pharmaceuticals Ltd., priority 2011, dated 2015)
In brackets after ≈: the same amount, converted by molar mass.

Tested on: S. aureus 29213
Assay: Bacterial growth minimal inhibitory concentrations (microdilution in cation-adjusted Mueller-Hinton Broth, CLSI M7-A7)
Format: cell-based
Details: Staphylococcus aureus, 29213, microdilution method
Method: Bacterial Growth Minimal Inhibitory Concentrations: Minimal inhibitory concentrations (MICs; mg/l) were determined in cation-adjusted Mueller-Hinton Broth by a microdilution method following the description given in “Methods for Dilution Antimicrobial Susceptibility Tests for Bacteria that Grow Aerobically”, Approved standard, 7th ed., Clinical and Laboratory Standards Institute (CLSI) Document M7-A7, Wayne, Pa., USA, 2006. All Example compounds were tested against several Gram positive and Gram negative bacteria.

Structure (SMILES)	MIC [µg/mL]
COc1ccc2ncc(F)c(C(O)CN3CC[C@@H]4CN(c5ccc6c(c5)NC(=O)CO6)C(=O)O[C@H]4C3)c2n1 (mixture of isomers) [Example 32, (4aR*,8aR*)-7-((2RS)-2-(3-fluoro-6-methoxy-1,5-naphthyridin-4-yl)-2-hydroxyethyl)-3-(3-oxo-3,4-dihydro-2H-benzo[b][1,4]oxazin-6-yl)octahydro-2H-pyrido[4,3-e][1,3]oxazin-2-one]	0.125 (≈ 0.239 µM)
O=C1O[C@H]2CN(C[C@H]3Cc4c(F)ccc5ccc(=O)n3c45)CC[C@@H]2CN1c1ccc2c(c1)OCCO2 (relative stereo) [Example 29, (R)-2-[(4aR*,8aR*)-3-(2,3-dihydro-benzo[1,4]dioxin-6-yl)-2-oxo-octahydro-pyrido[4,3-e][1,3]oxazin-7-ylmethyl]-9-fluoro-1,2-dihydro-pyrrolo[3,2,1-ij]quinolin-4-one]	0.25 (≈ 0.509 µM)
COc1ccc2ncc(F)c(CCN3CC[C@@H]4CN(c5ccc6c(c5)OCCO6)C(=O)O[C@H]4C3)c2n1 (single isomer, unassigned) [Example 1]	≤ 0.031
COc1ccc2ncc(F)c(CCN3CC[C@H]4CN(c5ccc6c(c5)OCCO6)C(=O)O[C@@H]4C3)c2n1 (single isomer, unassigned) [Example 2]	≤ 0.031
COc1ccc2ncc(F)c([C@H](O)CN3CC[C@@H]4CN(c5ccc6c(c5)OCCO6)C(=O)O[C@H]4C3)c2n1 (single isomer, unassigned) [Example 15]	0.063 (≈ 0.123 µM)

More lines, now with the values ahead:

MIC [µg/mL]	Structure (SMILES)
0.25 (≈ 0.495 µM)	COc1ccc2ccc(=O)n(CCN3CC[C@@H]4CN(c5ccc6c(c5)NC(=O)CO6)C(=O)O[C@H]4C3)c2n1 (racemic) [Example 34, rac-(4aR*,8aR*)-7-(2-(7-methoxy-2-oxo-1,8-naphthyridin-1(2H)-yl)ethyl)-3-(3-oxo-3,4-dihydro-2H-benzo[b][1,4]oxazin-6-yl)octahydro-2H-pyrido[4,3-e][1,3]oxazin-2-one]
≤ 0.031	COc1ccc2ncc(F)c([C@H](O)CN3CC[C@H]4CN(c5ccc6c(c5)OCCO6)C(=O)O[C@@H]4C3)c2n1 (single isomer, unassigned) [Example 14]
≤ 0.031	COc1ccc2ncc(F)c(CCN3CC[C@@H]4CN(c5ccc6c(n5)NC(=O)CS6)C(=O)O[C@H]4C3)c2n1 (single isomer, unassigned) [Example 20]
≤ 0.031	COc1ccc2ncc(F)c(CCN3CC[C@H]4CN(c5ccc6c(n5)NC(=O)CS6)C(=O)O[C@@H]4C3)c2n1 (single isomer, unassigned) [Example 21]

Same assay, conditions: microdilution method

MIC for S. aureus 29213 [µg/mL]	Structure (SMILES)
0.125	O=C1COc2ccc(N3C[C@H]4CCN(C[C@H]5Cc6c(F)ccc7ccc(=O)n5c67)C[C@@H]4OC3=O)nc2N1 (relative stereo) [Example 33, (4aR*,8aR*)-7-0(R)-9-fluoro-4-oxo-2,4-dihydro-1H-pyrrolo[3,2,1-ij]quinolin-2-yl)methyl)-3-(3-oxo-3,4-dihydro-2H-pyrido[3,2-b][1,4]oxazin-6-yl)octahydro-2H-pyrido[4,3-e][1,3]oxazin-2-one]
